What was measured:
[1] = target: S. aureus topoisomerase IV (topo IV); settings: previously tested, cited from earlier work; for IC50: read-out: Inhibitory Potency IC50 Topo IV
physchem = format: physicochemical; settings: for −S: slope of logk vs. methanol concentration (Eq. 1); for chromatographic logP: read-out: logPHPLC; for – S of standards: slope of Eq. 1
Method: Methanolic solutions (5 μL, 0.1%) of selected samples were applied to the chromatographic column (RP-18 Waters Symmetry, 15 cm length, 4.6 mm i.d., 5 μm particle size) by use of an autosampler Hitachi L-2200 (LaChrom Elite, Hitachi-Merck, Darmstadt, Germany). The mobile phase, consisting of a methanol and water mixture, was degassed by use of the built-in membrane degasser. […] Chromatograms were detected at 254 nm and the temperature of the column was 25 °C. All experiments were repeated in triplicate and the final results were taken to be the arithmetic means. Dead time was measured by use of uracil (Calbiochem. Merck, Darmstadt, Germany). All experiments were performed at ambient temperature.

S. aureus DNA gyrase = settings: previously tested, read-out: Inhibitory Potency IC50 DNA Gyrase; cited from earlier work
[2] = parameters: method as in earlier work; settings: octanol–water; OECD guidelines; cited from earlier work
[3] = Table 1, retention factor extrapolated to pure water (Eq. 1), methanol 45–75%, RP-18, 25 °C
[4] = Table 2, retention factor extrapolated to pure water
[5] = from logkw by calibration curve with seven OECD standards (Eq. 3)
[6] = same chromatographic conditions as compounds 1–17

| SMILES | logkw (physchem; [3]) | −S (physchem; Table 1) | logkw (physchem; [4]) | chromatographic logP (physchem; [5]) | other results |
| --- | --- | --- | --- | --- | --- |
| O=C(NNC(=S)Nc1ccc(F)cc1F)c1cc2ccccc2[nH]1 [Compound 24] |  |  |  |  | IC50 [1]: 295 µM; Inhibitory Potency IC50 Topo IV [1]: weak inhibitory potency |
| COc1cccc(C(=O)NNC(=S)NC(=O)c2ccccc2Cl)c1 [Compound 7] | 3.8283 | 5.6579 | 3.8283 | 3.93 |  |
| COc1cccc(C(=O)NNC(=S)NC(=O)c2ccccc2C)c1 [Compound 5] | 3.4487 | 4.8562 | 3.4487 | 3.53 |  |
| O=C(NC(=S)NNC(=O)c1ccc[nH]1)c1ccccc1 [Compound 2] | 2.5105 | 4.1416 | 2.5105 | 2.53 | IC50 [1]: 41 µM; Inhibitory Potency IC50 Topo IV [1]: anti-topo IV activity; IC50 (S. aureus DNA gyrase): 93.3 µM |
| Brc1ccccc1 [bromobenzene, reference compound] |  |  |  |  | logkw of standards (physchem; Table S2, parameters of Eq. 1): 3.0842; – S of standards (physchem; Table S2): 3.6630 |
| Cc1ccccc1 [toluene, reference compound] |  |  |  |  | – S of standards (physchem; Table S2): 3.4400 |
| CCc1ccccc1 [ethylbenzene, reference compound] |  |  |  |  | logkw of standards (physchem; Table S2, parameters of Eq. 1): 3.4018; – S of standards (physchem; Table S2): 3.8740; logkw of standards (physchem; [6]): 3.3754 |
| O=C(NNC(=S)Nc1ccccc1)c1cccc(O)c1 [Compound 16] | 2.0687 | 4.1968 | 2.0687 | 2.05 |  |
| Oc1ccc2ccccc2n1 [2-hydroxyquinoline, reference compound] |  |  |  |  | logkw of standards (physchem; Table S2, parameters of Eq. 1): 1.4879; – S of standards (physchem; Table S2): 2.9059; logkw of standards (physchem; [6]): 1.3682 |
| O=C(NNC(=S)Nc1ccccc1F)c1cc2ccccc2[nH]1 [Compound 22] |  |  |  |  | IC50 [1]: 63.5 µM; Inhibitory Potency IC50 Topo IV [1]: weak inhibitory potency |
| O=C(NNC(=S)NC1CCCCC1)c1ccccc1O [Compound 13] | 3.2386 | 4.7076 | 3.2386 | 3.3 |  |
| Cc1nc[nH]c1C(=O)NNC(=S)NC(=O)c1ccccc1 [Compound 20] |  |  |  |  | IC50 [1]: 90 µM; Inhibitory Potency IC50 Topo IV [1]: anti-topo IV activity |
| O=C(NNC(=S)Nc1ccccc1)c1ccccc1O [Compound 12] | 2.4813 | 4.1962 | 2.4813 | 2.49 |  |
| COc1cccc(C(=O)NNC(=S)NC(=O)c2cccc(Cl)c2)c1 [Compound 8] | 3.7422 | 5.0742 | 3.7422 | 3.84 |  |
| O=C(CS(=O)(=O)c1ccccc1)NNC(=S)NC(=O)c1ccccc1Cl [Compound 10] | 3.2498 | 5.7291 | 3.2498 | 3.31 |  |
| COc1cccc(C(=O)NNC(=S)NC(=O)c2ccccc2)c1 [Compound 4] | 3.3130 | 4.8205 | 3.3130 | 3.38 |  |
| O=C(NNC(=S)NC(=O)c1ccccc1Cl)c1ccccc1O [Compound 3] | 4.2230 | 6.1166 |  | 4.36 |  |

| SMILES | logkw (physchem; [3]) | −S (physchem; Table 1) | logkw (physchem; [4]) | chromatographic logP (physchem; [5]) | other results |
| --- | --- | --- | --- | --- | --- |
| Cc1ccc(NC(=S)NNC(=O)c2ccccc2O)cc1Cl [Compound 15] | 3.9451 | 5.5432 | 3.9451 | 4.06 |  |
| O=C(NNC(=S)Nc1ccc(Cl)c(Cl)c1)c1ccccc1O [Compound 14] | 4.1453 | 5.6538 | 4.1453 | 4.27 |  |
| O=C(NNC(=S)Nc1ccc([N+](=O)[O-])cc1)c1ccc[nH]1 [Compound 27] |  |  |  |  | IC50 (S. aureus DNA gyrase): 64.2 µM |
| Nc1ccccc1 [aniline, reference compound] |  |  |  |  | logkw of standards (physchem; Table S2, parameters of Eq. 1): 1.1365; – S of standards (physchem; Table S2): 2.4091 |
| O=C(NNC(=S)Nc1ccc(F)cc1)c1cc2ccccc2[nH]1 [Compound 23] |  |  |  |  | IC50 [1]: 267 µM; Inhibitory Potency IC50 Topo IV [1]: weak inhibitory potency; IC50 (S. aureus DNA gyrase): 128 µM |
| c1ccc2ccccc2c1 [naphtalene, reference compound] |  |  |  |  | known logPo/w of standards [2]: 3.6; logkw of standards (physchem; Table S2, parameters of Eq. 1): 3.5779; – S of standards (physchem; Table S2): 4.2289; logkw of standards (physchem; [6]): 3.5502 |
| c1ccccc1 [benzene, reference compound] |  |  |  |  | logkw of standards (physchem; Table S2, parameters of Eq. 1): 2.2458; – S of standards (physchem; Table S2): 2.8691 |
| O=C(NC(=S)NNC(=O)c1cc2ccccc2[nH]1)c1ccccc1 [Compound 18] |  |  |  |  | IC50 [1]: 14 µM; Inhibitory Potency IC50 Topo IV [1]: anti-topo IV activity |
| O=C(NNC(=S)NC1CCCCC1)c1cccc(O)c1 [Compound 17] | 2.7583 | 4.3297 | 2.7583 | 2.79 |  |
| O=C(NNC(=S)Nc1ccc(Cl)cc1)c1ccccc1O [Compound 11] | 3.3324 | 4.8778 | 3.3324 |  | logPHPLC (physchem; [5]): 3.4026 |
| Cc1occc1C(=O)NNC(=S)NC(=O)c1ccccc1 [Compound 1] | 2.9992 | 4.3720 | 2.9992 | 3.05 | IC50 (S. aureus DNA gyrase): 14.6 µM |
| Cc1nnsc1C(=O)NNC(=S)Nc1ccc(Br)cc1 [Compound 28] |  |  |  |  | IC50 [1]: 403 µM |
| COc1cccc(C(=O)NNC(=S)NC(=O)c2cccc(C)c2)c1 [Compound 6] | 3.7864 | 5.1137 | 3.7864 | 3.89 |  |
| COc1cccc(C(=O)NNC(=S)NC(=O)c2ccc(Cl)cc2)c1 [Compound 9] | 3.9422 | 5.3417 | 3.9422 | 4.05 |  |
| O=C(NNC(=S)Nc1ccc([N+](=O)[O-])cc1)c1cc2ccccc2[nH]1 [Compound 21] |  |  |  |  | IC50 [1]: 14 µM |
| O=C(NC(=S)NNC(=O)c1cccs1)c1ccccc1 [Compound 19] |  |  |  |  | IC50 (S. aureus DNA gyrase): 83.6 µM |
